{
  "source": "paper PMC7293270",
  "about": "(Scientific Reports, 2020)",
  "key": {"[1]": {"test_system": "HCC", "settings": "cited from earlier work"}, "[2]": {"experiment": "Organ distribution of sorafenib in rats", "type": "in vivo, Sprague-Dawley rats", "settings": "for concentration at 6 h: Sprague-Dawley, rat, po, 40 mg/kg", "procedure": "The brain, liver, heart, spleen, lung and kidney were collected and weighed. These collected samples were stored at −20 °C until analysis.\nThawed organ samples were homogenized in 50% aqueous acetonitrile (sample weight:volume ratio, 1:5), and the homogenate was then centrifuged at 13000 × g for 10 min at 4 °C. The supernatant was collected, placed in brown Eppendorf tubes, and stored at −20 °C until analysis. In brief, each organ sample (50 μL) was combined with 150 μL of IS solution (diethylstilbestrol) for protein precipitation. Finally, 20 μL of filtrate was injected into the HPLC system for analysis."}, "[3]": {"test_system": "efflux transporter P-gp", "settings": "cited from earlier work"}, "[4]": {"test_system": "portal vein tumor thrombosis", "experiment": "Retrospective review: PVTT recanalization in HCC patients treated with sorafenib plus conventional RT or SBRT", "type": "in vivo, human", "procedure": "The need for informed consent was waived by the Institutional Review Board of the Far Eastern Memorial Hospital (FEMH-IRB-108025-E) and retrospective data were collected after receiving approval from the Institutional Review Board of the Far Eastern Memorial Hospital (FEMH-IRB-108025-E). All research was performed in accordance with relevant guidelines and regulations. All tumors were staged according to the American Joint Committee on Cancer (AJCC) Cancer Staging Manual, 7th edition. A total of 90 HCC patients with PVTT were identified. […] The patients who were treated with a radiation fraction size of <5 Gy and those treated with ≥5 Gy were grouped as the conventional and the SBRT group, respectively."}, "[5]": {"experiment": "Plasma pharmacokinetics of sorafenib with RT, with or without CsA pretreatment, in freely moving rats", "type": "in vivo, Sprague-Dawley rats", "settings": "for Cmax / Tmax / AUC(0-t): Sprague-Dawley, rat, plasma, 40 mg/kg", "procedure": "A freely moving rat model was designed for the current study[21] (Fig. 1A). Experimental rats were anesthetized with 1 g/mL urethane and 0.1 g/mL α-chloralose (1 mL/kg by intraperitoneal [i.p.] injection), and polyethylene tubes were then implanted in the right jugular vein for intravenous (i.v.) fluid administration. The right jugular vein was catheterized for blood sampling. The catheter traversed the subcutaneous tissue and was fixed in the dorsal neck region. After surgery, the rats were placed in an experimental cage and allowed to recover for 1 day. During the recovery period, the rats were kept warm under a light. Then, the rats were anesthetized and immobilized on a board while undergoing CT for localization of the whole liver (conventional technique, Fig. 1B) or a central area of 1.5 × 1.5 cm (SBRT technique, Fig. 1C).\nThe rats were randomly divided into five groups of six rats per group.\nThe rats were pretreated with CsA (20 mg/kg, i.p.). […] Blood samples were obtained according to a preset schedule.\nBlood samples (150 µL) were withdrawn from the jugular vein with a fraction collector at 15, 30, 45, and 60 min and at 1.5, 2, 2.5, 3, 3.5 and 4 hr after drug administration. The blood samples were immediately centrifuged at 4200 × g for 10 min. The resulting plasma (50 µL) was added to 1 mL of ethyl acetate in a clean tube, vortexed for 5 min, and centrifuged at 5900 × g for 10 min. After centrifugation, the upper organic layer containing ethyl acetate was transferred to a new tube and evaporated to dryness under a nitrogen flow.\nChromatographic analysis was performed on a Model LC-20DAD HPLC system (Shimadzu, Tokyo, Japan) equipped with a Model SPD-M20A wavelength UV detector, a SIL-20AC autosampler, and an LC Solution data processing system. A […] C[18] column (50 × 2.1 mm, particle size 1.7 μm, Eclipse XDB; Agilent, Palo Alto, CA, USA) was used for HPLC separation. The mobile phase consisted of potassium dihydrogen phosphate (10 mM, pH = 3) and acetonitrile (55:45, v/v). The flow rate was set at 0.2 mL/min, and the injection volume was 5 μL. […] A peak controlled spectrum recording was selected with a range of 190–300 nm.\nPharmacokinetic parameters, including the area under the concentration vs. time curve (AUC), terminal elimination phase t1/2, Cmax, MRT, total plasma clearance and Vss, were calculated using the PK calculation software WinNonlin Standard Edition, version 1.1 (Scientific Consulting, Apex, NC, USA) using a compartmental method."}, "[6]": {"design": "method as in earlier work", "settings": "cited from earlier work"}, "[7]": {"settings": "cited from earlier work"}, "[8]": {"settings": "sorafenib + SBRT (fraction size ≥ 5 Gy), n = 18"}, "[9]": {"settings": "sorafenib + conventional RT (fraction size <5 Gy), n = 25"}, "[10]": {"settings": "oral, CsA 20 mg/kg i.p. + RT2Gy, sorafenib 40 mg/kg 1 hr later"}, "[11]": {"settings": "oral, CsA 20 mg/kg i.p. + RT2Gy, sorafenib 40 mg/kg 24 hr later"}, "[12]": {"settings": "oral, CsA 20 mg/kg i.p. + RT9Gy, sorafenib 40 mg/kg 1 hr later"}, "[13]": {"settings": "oral, CsA 20 mg/kg i.p. + RT9Gy, sorafenib 40 mg/kg 24 hr later"}, "[14]": {"settings": "oral, CsA 20 mg/kg i.p. + sorafenib 40 mg/kg"}, "[15]": {"settings": "po, RT2Gy, sorafenib 40 mg/kg 1 hr later"}, "[16]": {"settings": "po, RT2Gy, sorafenib 40 mg/kg 24 hr later"}, "[17]": {"settings": "po, RT9Gy, sorafenib 40 mg/kg 1 hr later"}, "[18]": {"settings": "po, RT9Gy, sorafenib 40 mg/kg 24 hr later"}, "[19]": {"settings": "po, sorafenib 40 mg/kg p.o. only (sham RT), rats"}},
  "data": [
    {"smiles": "CNC(=O)c1cc(Oc2ccc(NC(=O)Nc3ccc(Cl)c(C(F)(F)F)c3)cc2)ccn1", "note": "[sorafenib, Sorafenib]", "values": [
      {"measurement": "Complete or partial response rate", "setting": "[1]; HCC patients, combination of sorafenib and RT", "result": 55, "unit": "%"},
      {"measurement": "Reduction of HCC tumor volume", "setting": "[1]; case report, sorafenib + RT combination regimen", "result": 39, "unit": "%"},
      {"measurement": "Organ distribution vs sham group", "setting": "[2]; RT2Gy and RT9Gy under the sequential regimen", "result": "did not differ significantly"},
      {"measurement": "Level of sorafenib in organs vs sham group", "setting": "[2]; RT9Gy concurrent with sorafenib, all organs except the brain", "result": "significantly decreased"},
      {"measurement": "concentration at 6 h", "setting": "[2]; brain", "result": "140 ± 150", "unit": "ng/g"},
      {"measurement": "concentration at 6 h", "setting": "[2]; heart", "result": "1200 ± 360", "unit": "ng/g"},
      {"measurement": "concentration at 6 h", "setting": "[2]; kidney", "result": "1930 ± 750", "unit": "ng/g"},
      {"measurement": "concentration at 6 h", "setting": "[2]; liver", "result": "4430 ± 1560", "unit": "ng/g"},
      {"measurement": "concentration at 6 h", "setting": "[2]; lung", "result": "3200 ± 1000", "unit": "ng/g"},
      {"measurement": "concentration at 6 h", "setting": "[2]; spleen", "result": "1420 ± 530", "unit": "ng/g"},
      {"measurement": "Binding to P-gp", "setting": "[3]", "result": "moderate affinity"},
      {"measurement": "P-gp substrate affinity", "setting": "[3]", "result": "moderate-affinity"},
      {"measurement": "No response (recanalization)", "setting": "[4]; [8]", "result": "1/18 (5.6%)"},
      {"measurement": "Partial recanalization", "setting": "[4]; [8]", "result": "12/18 (66.7%)"},
      {"measurement": "Increase in complete recanalization, SBRT vs conventional RT", "setting": "[4]; sorafenib + SBRT compared to sorafenib + conventional RT", "result": 3, "unit": "fold"},
      {"measurement": "No response (recanalization)", "setting": "[4]; [9]", "result": "10/25 (40.0%)"},
      {"measurement": "Partial recanalization", "setting": "[4]; [9]", "result": "13/25 (52.0%)"},
      {"measurement": "Cmax", "setting": "[5]; [10]", "result": "1720 ± 960", "unit": "ng/mL"},
      {"measurement": "Tmax", "setting": "[5]; [10]", "result": 3.3, "unit": "h"},
      {"measurement": "Cmax", "setting": "[5]; [11]", "result": "7710 ± 3410", "unit": "ng/mL"},
      {"measurement": "Tmax", "setting": "[5]; [11]", "result": 3.75, "unit": "h"},
      {"measurement": "Cmax", "setting": "[5]; [12]", "result": "3740 ± 2170", "unit": "ng/mL"},
      {"measurement": "Tmax", "setting": "[5]; [12]", "result": 3.33, "unit": "h"},
      {"measurement": "Cmax", "setting": "[5]; [13]", "result": "5430 ± 3220", "unit": "ng/mL"},
      {"measurement": "Tmax", "setting": "[5]; [13]", "result": 3.92, "unit": "h"},
      {"measurement": "Cmax", "setting": "[5]; [14]", "result": "4690 ± 2310", "unit": "ng/mL"},
      {"measurement": "Tmax", "setting": "[5]; [14]", "result": 4, "unit": "h"},
      {"measurement": "Cmax", "setting": "[5]; [15]", "result": "10100 ± 5930", "unit": "ng/mL"},
      {"measurement": "Tmax", "setting": "[5]; [15]", "result": 2.92, "unit": "h"},
      {"measurement": "Cmax", "setting": "[5]; [16]", "result": "1890 ± 1080", "unit": "ng/mL"},
      {"measurement": "Tmax", "setting": "[5]; [16]", "result": 3.4, "unit": "h"},
      {"measurement": "AUC(0-t)", "setting": "[5]; po, RT2Gy, sorafenib 40 mg/kg p.o. 1 hr later", "result": 27800, "unit": "ng·h/mL"},
      {"measurement": "AUC(0-t)", "setting": "[5]; po, RT2Gy, sorafenib 40 mg/kg p.o. 24 hr later", "result": 4950, "unit": "ng·h/mL"},
      {"measurement": "Cmax", "setting": "[5]; [17]", "result": "12300 ± 6300", "unit": "ng/mL"},
      {"measurement": "Tmax", "setting": "[5]; [17]", "result": 3.25, "unit": "h"},
      {"measurement": "Cmax", "setting": "[5]; [18]", "result": "8690 ± 2730", "unit": "ng/mL"},
      {"measurement": "Tmax", "setting": "[5]; [18]", "result": 3.08, "unit": "h"},
      {"measurement": "AUC(0-t)", "setting": "[5]; po, RT9Gy, sorafenib 40 mg/kg p.o. 1 hr later", "result": 31500, "unit": "ng·h/mL"},
      {"measurement": "AUC(0-t)", "setting": "[5]; po, RT9Gy, sorafenib 40 mg/kg p.o. 24 hr later", "result": 24300, "unit": "ng·h/mL"},
      {"measurement": "AUC(0-t)", "setting": "[5]; po, CsA 20 mg/kg i.p. + RT2Gy, sorafenib 40 mg/kg p.o. 1 hr later", "result": 4630, "unit": "ng·h/mL"},
      {"measurement": "AUC(0-t)", "setting": "[5]; po, CsA 20 mg/kg i.p. + RT2Gy, sorafenib 40 mg/kg p.o. 24 hr later", "result": 18600, "unit": "ng·h/mL"},
      {"measurement": "AUC(0-t)", "setting": "[5]; po, CsA 20 mg/kg i.p. + RT9Gy, sorafenib 40 mg/kg p.o. 1 hr later", "result": 10100, "unit": "ng·h/mL"},
      {"measurement": "AUC(0-t)", "setting": "[5]; po, CsA 20 mg/kg i.p. + RT9Gy, sorafenib 40 mg/kg p.o. 24 hr later", "result": 12900, "unit": "ng·h/mL"},
      {"measurement": "AUC(0-t)", "setting": "[5]; po, CsA 20 mg/kg i.p. + sorafenib 40 mg/kg p.o.", "result": 13100, "unit": "ng·h/mL"},
      {"measurement": "AUC(0-t)", "setting": "[5]; [19]", "result": 12000, "unit": "ng·h/mL"},
      {"measurement": "Cmax", "setting": "[5]; [19]", "result": "4390 ± 2280", "unit": "ng/mL"},
      {"measurement": "Tmax", "setting": "[5]; [19]", "result": 3.75, "unit": "h"},
      {"measurement": "Increase in concentration of sorafenib", "setting": "[5]; both concurrent and sequential RT9Gy regimens compared with sorafenib alone", "result": "more than 2 fold"},
      {"measurement": "Permeability across the gastrointestinal (GI) epithelium", "setting": "[6]", "result": "high"},
      {"measurement": "Reduction of AUC", "setting": "[7]; average, concomitant administration of the CYP3A4 inducer rifampicin", "result": 37, "unit": "%"},
      {"measurement": "Orally administered dose recovered as unchanged drug", "setting": "[7]; by biliary excretion or lack of absorption", "result": "Approximately 50%"}
    ]}
  ]
}
